Data from the NIST ThermoML archive (doi:10.1016/j.jct.2019.01.007).
Several values for one entry are separate records, joined by “and”; a condition that tells them apart may be missing. Equal values may be shown once.

Conditions: Liquid

CCCCCCCCCCCCCCCCC(=O)OC [methyl heptadecanoate]
Transpiration method
Conditions | vapor or sublimation pressure [kPa]
337.9 K | 0.000259
339.75 K | 0.000298
341.8 K | 0.000371
342.85 K | 0.000395
345.85 K | 0.000532
347.95 K | 0.000685
350 K | 0.000803
354.3 K | 0.00114
357.5 K | 0.00144
360.6 K | 0.00195
362.5 K | 0.00206
365.25 K | 0.00272
366.85 K | 0.00301
369 K | 0.00377
372.3 K | 0.00464
376.2 K | 0.0058
379.2 K | 0.00772
382.25 K | 0.0089
385.65 K | 0.0111
387 K | 0.0126
389.25 K | 0.0152
391.3 K | 0.0176
393.4 K | 0.0186
396.2 K | 0.0246
399.2 K | 0.0302
402.35 K | 0.0355
405.3 K | 0.044
408.15 K | 0.0523
412.2 K | 0.0635

CCCCCCCCCCCCC(=O)OC [methyl tridecanoate]
Transpiration method
Conditions | vapor or sublimation pressure [kPa]
298.15 K | 0.000239
300.15 K | 0.000302
303.25 K | 0.00041
305.15 K | 0.000485
308.15 K | 0.000697
310.15 K | 0.000799
313.35 K | 0.00112
315.05 K | 0.0013
318.25 K | 0.00174
320.15 K | 0.00203
323.25 K | 0.00258
325.05 K | 0.00314
328.15 K | 0.00415
330.15 K | 0.00492
333.15 K | 0.00626
335.15 K | 0.00739
338.15 K | 0.00934
340.15 K | 0.0111
343.05 K | 0.0131
345.15 K | 0.0163
348.15 K | 0.0197
350.15 K | 0.023
353.15 K | 0.0286
355.15 K | 0.0338

CCCCCCCCCCC(=O)OC [methyl undecanoate]
Conditions | vapor or sublimation pressure [kPa]
305.25 K | 0.003577
307.81 K | 0.004504
310.15 K | 0.005571
312.67 K | 0.006957
315.06 K | 0.008553
317.52 K | 0.01055
319.94 K | 0.01283
322.42 K | 0.01574
324.82 K | 0.019
327.29 K | 0.02304
329.69 K | 0.02778
332.16 K | 0.03345
334.54 K | 0.03987
337.03 K | 0.04783
339.43 K | 0.05689
341.91 K | 0.06735

CCCCCCCCCCCCCCCC(=O)OC [methyl hexadecanoate]
Conditions | vapor or sublimation pressure
308.12 K | 2.814e-05 kPa
312 K | 4.574e-05 kPa
312.96 K | 5.318e-05 kPa
312.97 K | 4.817e-05 kPa
314.42 K | 5.995e-05 kPa
315.4 K | 6.903e-05 kPa
316.85 K | 7.591e-05 kPa
317.81 K | 8.232e-05 kPa
317.82 K | 8.757e-05 kPa
319.27 K | 0.0001 kPa
320.26 K | 0.0001123 kPa
321.71 K | 0.0001276 kPa
322.66 K | 0.0001426 kPa
322.67 K | 0.000144 kPa
324.12 K | 0.0001655 kPa
325.11 K | 0.0001853 kPa
326.56 K | 0.0002146 kPa
327.52 K | 0.0002379 kPa and 0.0002346 kPa
328.98 K | 0.0002676 kPa
329.96 K | 0.0002973 kPa
331.42 K | 0.0003403 kPa
332.37 K | 0.0003763 kPa and 0.000377 kPa
333.83 K | 0.000429 kPa
334.83 K | 0.0004701 kPa
336.28 K | 0.0005477 kPa
337.23 K | 0.0006044 kPa and 0.0005995 kPa
338.69 K | 0.0006834 kPa
339.69 K | 0.0007518 kPa
341.14 K | 0.0008558 kPa
342.09 K | 0.0009461 kPa and 0.0009339 kPa
343.55 K | 0.00107 kPa
344.55 K | 0.001176 kPa
345.01 K | 0.001226 kPa
346 K | 0.001334 kPa
346.95 K | 0.001462 kPa and 0.001463 kPa
348.41 K | 0.001655 kPa
349.41 K | 0.001817 kPa
349.87 K | 0.001888 kPa
350.86 K | 0.002055 kPa
351.82 K | 0.002257 kPa
353.27 K | 0.002528 kPa
354.29 K | 0.002774 kPa
354.73 K | 0.002884 kPa
355.73 K | 0.003112 kPa
356.67 K | 0.003414 kPa
358.13 K | 0.003814 kPa
359.16 K | 0.004171 kPa
359.59 K | 0.004332 kPa
359.63 K | 0.004286 kPa
360.59 K | 0.004673 kPa
361.55 K | 0.005107 kPa
363 K | 0.00565 kPa
364.02 K | 0.006171 kPa
364.45 K | 0.006382 kPa
364.49 K | 0.006315 kPa
365.45 K | 0.006842 kPa
366.41 K | 0.00747 kPa
367.87 K | 0.008233 kPa
368.87 K | 0.008934 kPa
369.32 K | 0.009208 kPa
371.29 K | 0.01071 kPa
371.74 K | 0.01102 kPa
372.64 K | 0.01169 kPa
372.73 K | 0.01183 kPa
375.03 K | 0.0139 kPa
377.49 K | 0.0166 kPa
379.9 K | 0.01941 kPa
382.34 K | 0.02319 kPa
384.76 K | 0.02705 kPa
387.21 K | 0.03214 kPa
389.66 K | 0.03772 kPa
392.06 K | 0.04434 kPa
394.52 K | 0.05191 kPa
396.92 K | 0.06045 kPa
399.39 K | 0.07078 kPa
401.78 K | 0.08154 kPa
404.23 K | 0.09507 kPa
406.65 K | 0.1092 kPa
409.09 K | 0.1267 kPa
411.5 K | 0.1469 kPa
411.52 K | 0.1459 kPa
416.35 K | 0.1929 kPa
421.21 K | 0.2522 kPa
426.08 K | 0.3266 kPa
428.52 K | 0.37 kPa
430.94 K | 0.4193 kPa
